The source of these data is US8278072B1, “Method for synthesis of sialylated products using reversible sialylation” (Health Research, Inc., priority 2007, dated 2012).

What all share (type): biochemical
In one test the target is T1, ST6Gal-I (Rattus norvegicus, UniProt P13721).
T1 construct: purchased Calbiochem
T1 sequence (P13721 1-403): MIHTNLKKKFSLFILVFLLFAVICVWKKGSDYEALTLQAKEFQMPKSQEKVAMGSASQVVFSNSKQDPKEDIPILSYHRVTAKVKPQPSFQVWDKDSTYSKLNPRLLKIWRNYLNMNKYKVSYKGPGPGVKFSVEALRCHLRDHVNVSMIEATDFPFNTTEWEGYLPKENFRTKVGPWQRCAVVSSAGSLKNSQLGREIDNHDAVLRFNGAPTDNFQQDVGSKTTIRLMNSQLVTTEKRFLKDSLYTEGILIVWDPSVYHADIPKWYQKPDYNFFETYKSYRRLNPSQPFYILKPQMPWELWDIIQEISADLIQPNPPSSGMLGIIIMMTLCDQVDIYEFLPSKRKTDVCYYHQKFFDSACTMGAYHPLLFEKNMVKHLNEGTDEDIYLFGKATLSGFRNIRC
The test is described as follows: CMP-NeuAc / UMP-NeuAc formed by reverse sialylation as sialyl donor, ST6Gal-I activity. Particulars: acceptor 2.5 mM Galβ1,4GlcNAcβ-O-Bn; donor [3] 0.0625 mM, 8 mM 5′-CMP or 5′-UMP, ST3Gal-II plus ST6GalI, 4 h.

The next test addresses T2, ST3Gal-III (Rattus norvegicus, UniProt Q02734).
T2 construct: purchased Calbiochem
T2 sequence (Q02734 1-374): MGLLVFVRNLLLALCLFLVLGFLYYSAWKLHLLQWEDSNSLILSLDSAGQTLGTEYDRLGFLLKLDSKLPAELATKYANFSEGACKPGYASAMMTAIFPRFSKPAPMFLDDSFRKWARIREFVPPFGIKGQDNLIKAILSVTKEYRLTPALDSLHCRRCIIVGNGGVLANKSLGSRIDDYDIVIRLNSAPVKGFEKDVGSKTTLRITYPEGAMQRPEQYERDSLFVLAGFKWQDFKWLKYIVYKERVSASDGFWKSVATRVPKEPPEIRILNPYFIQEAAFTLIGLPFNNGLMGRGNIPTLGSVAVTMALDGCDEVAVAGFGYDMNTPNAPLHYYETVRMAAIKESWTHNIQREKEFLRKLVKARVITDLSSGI
The test is described as follows: CMP-NeuAc / UMP-NeuAc formed by reverse sialylation as sialyl donor, ST3Gal-III activity. Conditions: acceptor 2.5 mM 4-O-MeGalβ1,4GlcNAcβ-O-Bn; donor [3] 0.0625 mM, 8 mM 5′-CMP or 5′-UMP, ST3Gal-II plus ST3Gal-III, 4 h.

Test [1] has as its target T3, ST3Gal-II (Rattus norvegicus, UniProt Q11205).
T3 construct: purchased Calbiochem
T3 sequence (Q11205 1-350): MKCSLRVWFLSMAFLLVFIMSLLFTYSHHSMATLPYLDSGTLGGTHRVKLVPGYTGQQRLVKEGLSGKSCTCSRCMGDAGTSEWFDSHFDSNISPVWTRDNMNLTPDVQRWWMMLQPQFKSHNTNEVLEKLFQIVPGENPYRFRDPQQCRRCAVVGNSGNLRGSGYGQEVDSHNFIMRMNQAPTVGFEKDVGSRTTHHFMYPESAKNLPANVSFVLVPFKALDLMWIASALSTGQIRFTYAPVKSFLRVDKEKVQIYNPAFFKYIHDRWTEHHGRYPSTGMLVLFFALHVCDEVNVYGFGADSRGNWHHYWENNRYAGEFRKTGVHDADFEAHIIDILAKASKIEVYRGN
In words: CMP-NeuAc / UMP-NeuAc formed by reverse sialylation as sialyl donor, ST3Gal-II activity. Conditions: acceptor 2.5 mM D-Fucβ1,3GalNAcα-O-Bn; donor [3] 0.0625 mM, 8 mM 5′-CMP or 5′-UMP, 4 h, blank subtracted.

Test [2] concerns the target T3, ST3Gal-II. In words: Reverse sialylation by ST3Gal-II in presence of citrate or 5′-nucleotides. Particulars: for inhibition at 40000 µM: 40 mM citrate, donor [3]. Here is the method: (§1) FIG. 5. Effect of 5′-nucleotides on direct sialyltransferase activity (panel a) and reverse sialylation (panel b). a. Varying concentrations of 5′-CDP or 5′-CMP were added to 100 mM acceptor (specified below), 0.15 mM CMP-[9-^3H]NeuAc and either ST3Gal-II (0.2 mU), ST3Gal-III (0.5 mU) or ST6Gal-I (0.2 mU) for 4 h at 37° C. Products were separated using Sep-Pak C18 method. ST3Gal-III activity was measured using acceptor 4-O-MeGalβ1,4GlcNAcβ-O-Bn in the presence of 5′-CDP (●) and 5′-CMP (◯). ST6Gal-I activity was measured using Gal β1,4GlcNAcβ-O-Bn in the presence of 5′-CDP (▴) and 5′-CMP (Δ). ST3Gal-II using D-Fucβ1,3GalNAcα-O-Bn in the presence of 5′-CDP (▪) and 5′-CMP (□). b) Reverse sialylation by ST3Gal-II was measured in reaction mixtures containing 0.2 mM [9-^3H] [3], 7 mM 5′-CMP, ST3Gal-II (2 mU), D-Fucβ1,3GalNAcα-OBn (3.0 mM) and varying doses of either 5′-CDP (▴), 5′-UMP (◯) or 2-deoxy 5′-CMP (●) for 4 hours at 37° C. Reaction product ([9-^3H]NeuAcα2,3DFucβ1,3 GalNAcα-O-Bn) was isolated using Sep-Pak C18 method. In some runs, where was absent, the amount of CMP-NeuAc produced was quantified using the Dowex-1 Formate method in the presence of varying doses of 5′-CDP (▪).
(§2) Besides pH other distinctions were also observed between forward and reverse sialylation. In this regard, citrate ions tended to inhibit forward sialylation but not reverse sialylation activity (Table V). For these studies, the effect of citrate on the forward sialylation activity of ST3Gal-I, ST3Gal-II, ST3Gal-III and ST6Gal-I was examined. Reverse sialylation activity of ST3Gal-II was also measured in terms of: i) the formation of CMP-NeuAc from 5′-CMP; and ii) the transfer of NeuAc from this newly synthesized CMP-NeuAc to another O-glycan. From the data (Table V), it is evident that citrate inhibits the direct sialylation activity of all the enzymes mentioned above. However, both the synthesis of CMP-[9-^3H]NeuAc from 5′-CMP as well as the synthesis of [9-^3H]NeuAcα2,3D-Fucβ1,3 GalNAcα-O-Bn using the newly formed CMP-[9-^3H]NeuAc through reverse sialylation of ST3Gal-II was not inhibited by citrate.
(§3) The effect of 5′-nucleotides on forward sialylation (FIG. 5a) and reverse sialylation (FIG. 5b) were examined. […] The overall formation of [9-^3H]NeuAcα2,3D-Fucβ1,3 GalNAcα-O-Bn by the two-step reverse sialylation process, however, was inhibited by 5′-CDP and this is consistent with the finding that 5′-CDP inhibits forward sialylation in the second step.

Test [3] deals with T4, ST3Gal III (Cloned rat liver) (Rattus norvegicus, UniProt Q02734).
T4 construct: purchased Calbiochem
T4 sequence (Q02734 1-374): T2 sequence (Q02734 1-374)
In words: Forward (direct) sialyltransferase activity, ST3Gal-III. On the procedure:
as §1, §2, §3

Test [4] concerns the target T5, ST3Gal II (Cloned rat liver) (Rattus norvegicus, UniProt Q11205).
T5 construct: purchased Calbiochem
T5 sequence (Q11205 1-350): T3 sequence (Q11205 1-350)
In words: Forward (direct) sialyltransferase activity, ST3Gal-II. Here is the method:
as §1, §2, §3

The next test deals with T6, ST3Gal I (Cloned Human) (Homo sapiens, UniProt Q11201).
T6 sequence (Q11201 1-340): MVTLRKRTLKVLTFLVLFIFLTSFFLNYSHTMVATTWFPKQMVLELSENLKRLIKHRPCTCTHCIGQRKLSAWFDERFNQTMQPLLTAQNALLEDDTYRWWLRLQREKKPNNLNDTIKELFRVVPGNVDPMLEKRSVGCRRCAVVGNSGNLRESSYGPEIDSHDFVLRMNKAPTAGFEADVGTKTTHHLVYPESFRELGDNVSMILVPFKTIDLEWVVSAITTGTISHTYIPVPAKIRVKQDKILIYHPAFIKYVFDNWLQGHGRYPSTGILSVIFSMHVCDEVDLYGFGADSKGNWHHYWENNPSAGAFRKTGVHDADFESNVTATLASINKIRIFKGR
The test is described as follows: Forward (direct) sialyltransferase activity, ST3Gal I. On the procedure:
as §2

The target of test [5] is T7, ST6Gal I (Cloned rat liver) (Rattus norvegicus, UniProt P13721).
T7 construct: purchased Calbiochem
T7 sequence (P13721 1-403): T1 sequence (P13721 1-403)
The test is described as follows: Forward (direct) sialyltransferase activity, ST6Gal-I. On the procedure: as §1, §2, §3

Where [6] appears, read: acceptor Galβ1,3GalNAcβ-O-Al 1.0 mM, 0.15 mM CMP-[9-3H]NeuAc, 4 hours.

The inhibition is the change of the read-out against control, counted positive when it falls.

Where a name gives a salt, the structure may show the parent alone. Read-outs that look alike come from different tables or passages of the source.

With `CC(=O)NC1C(O)CC(OP(=O)(O)OCC2OC(n3ccc(=O)[nH]c3=O)C(O)C2O)(C(=O)O)OC1C(O)C(O)CO` (stereo not drawn) [UMP-NeuAc], on ST6Gal-I, the “Incorporation of [9-3H]NeuAc into the acceptor, ST6Gal-I activity” value came to 182 CPM. Also, on ST3Gal-III, the “Incorporation of [9-3H]NeuAc into the acceptor, ST3Gal-III activity” value is 3804 CPM. Also, the “Incorporation of [9-3H]NeuAc into the acceptor, ST3Gal-II activity” value on ST3Gal-II [1] was found to be 1243 CPM.

In the case of `O=C(O)CC(O)(CC(=O)O)C(=O)O` [citrate, sodium citrate], the inhibition at 40000 µM at ST3Gal-II [2] (read-out: Inhibition of synthesis of CMP-[9-3H]NeuAc from 5′-CMP) is 0%; on ST3Gal-II [2] (read-out: Inhibition of synthesis of [9-3H]NeuAcα2,3D-Fucβ1,3GalNAcα-OBn through 5′-CMP) it was 0%; in test [3] (40 mM citrate, acceptor 4-O-MeGalβ1,4GlcNAcβ-O-Bn) it was 64.3%; in test [4] (40 mM citrate, acceptor Galβ1,3GalNAcβ-O-Al), 48.2%; on ST3Gal I (Cloned Human), 98.3%; in test [5] (40 mM citrate, acceptor Galβ1,4GlcNAcβ-O-Bn), 92.4%. The “Activity (Incorporation of [9-3H]NeuAc) with citrate (40 mM): synthesis of [9-3H]NeuAcα2,3D-Fucβ1,3GalNAcα-OBn through 5′-CMP” value at ST3Gal-II [2] (donor […] [3], 20 mM 5′-CMP, 3.0 mM D-Fucβ1,3GalNAcα-OBn, 4 hours) amounted to 59131 CPM. In addition, on ST3Gal-II [2] (donor […] [3], 20 mM 5′-CMP, 5.0 mU ST3Gal-II, 4 hours), the “Activity (Incorporation of [9-3H]NeuAc) with citrate (40 mM): synthesis of CMP-[9-3H]NeuAc from 5′-CMP” value was determined as 48800 CPM. Further, the “Activity (Incorporation of [9-3H]NeuAc) with citrate (40 mM)” value in test [3] (acceptor 4-O-MeGalβ1,4GlcNAcβ-O-Bn 1.0 mM, 0.15 mM CMP-[9-3H]NeuAc, 4 hours) is 39115 CPM; in test [4] (setting [6]) it was 33025 CPM; at ST3Gal I (Cloned Human) (setting [6]), 402 CPM; in test [5] (acceptor Galβ1,4GlcNAcβ-O-Bn 1.0 mM, 0.15 mM CMP-[9-3H]NeuAc, 4 hours) it was 7471 CPM.
